What was measured:
[1] = Fluorescence spectrometry; format: physicochemical; details: for fluorescence emission peak: 1 μM in MeOH; for blue shift of fluorescence emission spectra at pH 4 from those at pH 10 / intensity of fluorescence at pH 4 and pH 10 / intensity of fluorescence in 50% aqueous MeOH compared with 100% MeOH: 420 nm excitation, 6 at 1 μM; for blue shift of fluorescence emission spectra at pH 4 from those at pH 10 / intensity of fluorescence at pH 4 and pH 10: 7 at 0.3 μM; for intensity of fluorescence in 50% aqueous MeOH compared with 100% MeOH: 7 at 0.5 μM
Experimental: Fluorescence measurements were done using a FluoroMate FS-2. Steady-state fluorescence spectra were generally taken at 1 μM of compounds (1, 2, 6, 10, and 13) and 0.5 μM of compound 7 in MeOH. The samples were illuminated with 420 and 440 nm of light and fluorescence emission was scanned from 500 to 800 nm. Fluorescence spectra in both aqueous and organic solvent were generally taken at 1 μM of compound 6 and 0.5 μM of compound 7 in 100% MeOH and 50% aqueous MeOH by illumination with 420 nm of light. The pH profiles of fluorescence spectra were generally taken at 1 μM of compound 6 and 0.3 μM of compound 7 at pH 4 and 10 in MeOH by illumination with 420 nm of light.
To determine fluorescence quenching effect of the conjugates, the intensity of fluorescence of each compound with same concentration was analyzed using fluorescence spectrophotometer. The fluorescence emission spectrum of compounds at 1 μM (1, 2, 6, 10, and 13) and 0.5 μM (7) was obtained by excitation wavelengths (420 and 440 nm). […] Therefore, it could be speculated that the background fluorescence of the conjugates as they are administered invivo, may not be detected until internalization and cleavage of the conjugates by enzymatic attack in cancer cells are occurred so that the photoactivity of Pa and DOX may be recovered. In the case of Pa-PTX conjugate (7), fluorescence quenching effect was not observed as PTX is not a fluorophore (FIG. 3). To verify fluorescence quenching due to a close contact effect, spectral comparison of fluorescence emission of compounds 6 (1 μM) and 7 (0.5 μM) in aqueous and organic solvent was investigated by 420 nm excitation wavelength using fluorescence spectrophotometer. In contact quenching, two molecules interact by proton-coupled electron transfer through the formation of hydrogen bonds. In aqueous solutions, electrostatic, steric and hydrophobic forces control the formation of hydrogen bonds. Therefore, the quenching efficiency of conjugates could depend on the employed solvents.

[2] = test system: HeLa (cervical cancer) cells; assay: SRB cell viability assay, HeLa; format: cell-based; details: 10 μM, three days
Experimental: (§1) The AT-84 is a squamous cell carcinoma, spontaneously arising from oral mucosa and syngenic to C3H/HeJ mice (which were kindly provided by Dr. E. J. Shillitoe, State University of New York, Upstate Medical University). MCF7, KB, HCT116, PC3, U-87MG, SK-OV-3, AT-84 cells were grown in RPMI 1640. The adherent cell line HepG2, HeLa, A549, YD-10B cells were cultured in DMEM medium. Both media were supplemented with 10% FBS (Invitrogen Co.), and antibiotic-antimycotic (Invitrogen Co.). All cell lines were incubated in a humidified atmosphere containing 5% CO2 at 37° C. The adherent cells were detached from the culture flasks by removal of the growth medium and addition of 1 mL trypsin/EDTA solution (0.05% w/v trypsin, 0.016% w/v EDTA). After 1-2 min incubation at 37° C., when the cells had detached from the surface, trypsinization was stopped by the addition of 4 mL of DMEM medium containing 10% FBS. […]
(§2) A cell viability assay was conducted to test the synthesized compounds on various cancer cells including MCF7 (breast adenocarcinoma), KB (mouth carcinoma), HeLa (cervical cancer), U-87MG (glioblastoma), A549 (lung adenocarcinoma), AT-84 (oral cancer), and YD-10B (oral cancer) cells. Briefly, the cells were incubated for three days with the synthesized compounds (6, 7, 10, and 13) and the viability was measured by the protocol of SRB assay. […]

[3] = test system: U-87MG (glioblastoma) cells; assay: SRB cell viability assay, U-87MG; format: cell-based; details: U-87MG cells, 10 μM, three days
Experimental: as §1, §2

[4] = test system: various cancer cells; assay: SRB cell viability assay, various cancer cells (overall comparison); format: cell-based; details: same concentration (10 μM), three days; 6 compared with DOX; 10 and 13 compared with Pa-DOX direct conjugate
Experimental: The AT-84 is a squamous cell carcinoma, spontaneously arising from oral mucosa and syngenic to C3H/HeJ mice (which were kindly provided by Dr. E. J. Shillitoe, State University of New York, Upstate Medical University). MCF7, KB, HCT116, PC3, U-87MG, SK-OV-3, AT-84 cells were grown in RPMI 1640. The adherent cell line HepG2, HeLa, A549, YD-10B cells were cultured in DMEM medium. Both media were supplemented with 10% FBS (Invitrogen Co.), and antibiotic-antimycotic (Invitrogen Co.). All cell lines were incubated in a humidified atmosphere containing 5% CO2 at 37° C. The adherent cells were detached from the culture flasks by removal of the growth medium and addition of 1 mL trypsin/EDTA solution (0.05% w/v trypsin, 0.016% w/v EDTA). After 1-2 min incubation at 37° C., when the cells had detached from the surface, trypsinization was stopped by the addition of 4 mL of DMEM medium containing 10% FBS.
The cells were plated at a density of 50,000 cells/mL and well in 96-well plates and incubated with inhibitors for the time indicated. The SRB assay was carried out as described by Skehan et al. (Skehan, P. et al., J. Natl. Cancer Inst. 1990, 82, 1107). The drug incubation period of the cells was stopped by the addition of 50 μL of ice cold TCA solution into the growth medium.
A cell viability assay was conducted to test the synthesized compounds on various cancer cells including MCF7 (breast adenocarcinoma), KB (mouth carcinoma), HeLa (cervical cancer), U-87MG (glioblastoma), A549 (lung adenocarcinoma), AT-84 (oral cancer), and YD-10B (oral cancer) cells. Briefly, the cells were incubated for three days with the synthesized compounds (6, 7, 10, and 13) and the viability was measured by the protocol of SRB assay. […] The results may be interpreted with possibilities that the conjugates may suffer from entering the cells or being cleaved in the cells. Infact, the cellular uptake of the conjugates was occurred slower than Pa itself as shown in the study of Section 2.4. […]

[5] = test system: AT-84 (oral cancer) cells; assay: SRB cell viability assay, AT-84; format: cell-based, mice; details: AT-84 cells, 10 μM, three days
Experimental: as §1, §2

[6] = test system: MCF7 (breast adenocarcinoma) cells; assay: SRB cell viability assay, MCF7; format: cell-based; details: 10 μM, three days
Experimental: as §1, §2

[7] = test system: KB (mouth carcinoma) cells; assay: SRB cell viability assay, KB; format: cell-based; details: 10 μM, three days
Experimental: as §1, §2

[8] = test system: YD-10B (oral cancer) cells; assay: SRB cell viability assay, YD-10B; format: cell-based; details: YD-10B cells, 10 μM, three days
Experimental: as §1, §2

| Compound | fluorescence emission peak ([1]; excitation 420 and 440 nm) [nm] | inhibition of growth / cell viability [2] | inhibitory activity of the cell viability relative to comparator [4] | inhibition of growth / cell viability [6] | blue shift of fluorescence emission spectra at pH 4 from those at pH 10 [1] | intensity of fluorescence at pH 4 and pH 10 [1] | intensity of fluorescence in 50% aqueous MeOH compared with 100% MeOH [1] | other results |
| --- | --- | --- | --- | --- | --- | --- | --- | --- |
| C=Cc1c(C)c2cc3nc(c4c5[nH]c(cc6nc(cc1[nH]2)C(C)=C6CC)c(C)c5C(=O)C4C(=O)OC)[C@@H](CCC(=O)O)[C@@H]3C (stereo partly drawn) [Compound 1, Pheophorbide-α] | 665 |  |  |  |  |  |  |  |
| COc1cccc2c1C(=O)c1c(O)c3c(c(O)c1C2=O)C[C@@](O)(C(=O)CO)C[C@@H]3O[C@H]1C[C@H](N)[C@H](O)[C@H](C)O1 [Compound 2, doxorubicin, reference compound] | 585 |  |  |  |  |  |  |  |
| C=Cc1c(C)c2cc3nc(c4c5[nH]c(cc6nc(cc1[nH]2)C(C)=C6CC)c(C)c5C(=O)C4C(=O)OC)[C@@H](CCC(=O)NC1C[C@@H](O[C@H]2C[C@](O)(C(=O)CO)Cc4c(O)c5c(c(O)c42)C(=O)c2c(OC)cccc2C5=O)O[C@H](C)[C@@H]1O)[C@@H]3C (stereo partly drawn) [Compound 6, Pheophorbide-α-Doxorubicin] | 670 | moderately inhibited | lower activity than DOX itself | moderately inhibited | about 10 nm | increased at pH 4 but decreased at pH 10 | significantly reduced | inhibition of growth / cell viability [3]: moderately inhibited; inhibition of growth / cell viability [5]: moderately inhibited |
| C=Cc1c(C)c2cc3nc(c4c5[nH]c(cc6nc(cc1[nH]2)C(C)=C6CC)c(C)c5C(=O)C4C(=O)OC)[C@@H](CCC(=O)O[C@H](C(=O)O[C@H]1C[C@@]2(O)[C@@H](OC(=O)c4ccccc4)[C@@H]4[C@]5(OC(C)=O)CO[C@@H]5C[C@H](O)[C@@]4(C)C(=O)[C@H](OC(C)=O)C(=C1C)C2(C)C)[C@H](NC(=O)c1ccccc1)c1ccccc1)[C@@H]3C (stereo partly drawn) [Compound 7, Pheophorbide-α-Paclitaxel] |  | potent inhibitory activity |  | potent inhibitory activity | about 10 nm | increased at pH 4 but decreased at pH 10 | significantly reduced | inhibition of growth / cell viability [7]: potent inhibitory activity; inhibition of growth / cell viability [8]: potent inhibitory activity; fluorescence quenching effect ([1]; 0.5 μM in MeOH, excitation 420 and 440 nm): not observed |
| Pheophorbide-α-2-hydroxycinnamic acid-doxorubicin [Compound 10] | 670 |  | generally less inhibitory activity |  |  |  |  |  |
| Pheophorbide-α-4-aminobenzyl alcohol-4-nitrophenyl formate-doxorubicin [Compound 13] | 670 |  | generally less inhibitory activity |  |  |  |  |  |
